In patent US10183941B2, “Pyrimidine or pyridopyridone compound and application thereof” (GUANGZHOU BEBETTER MEDICINE TECHNOLOGY CO., LTD., priority 2015, dated 2019):
Like-named read-outs stand apart in the source and are kept apart here.

Experiments:
[1] = tested on: MDA-MB-231 breast cancer cells; assay: Cell cycle inhibition experiment (PI staining, flow cytometry); type: cell-based; conditions: Homo sapiens, MDA-MB-231 cells, 24 h
Description: The cell cycle and apoptosis assay kit (Beyotime, C1052) used in this experiment is an assay kit for analyzing the cell cycle and apoptosis using the classic method of Propidium staining (PI staining). Propidium (PI) is a double-stranded DNA fluorescent dye. The combination of propidium and double-stranded DNA can produce fluorescence, and fluorescence intensity is proportional to the amount of double-stranded DNA. After DNA in cells is stained with propidium, the DNA content of the cells can be measured by flow cytometry, and then the cell cycle and apoptosis can be analyzed according to the distribution of DNA content.
MDA-MB-231 cells were seeded into a 6-well plate at 3×10^5 per well and cultured for 24 hours.
In tumor cell cycle, the binding of CDK4 and CDK6 to cyclin D promotes G1 phase into S phase. CDK4/6 inhibitor selectively arrests the G1 phase of tumor cells into S phase. The detection results of the cell cycle of MDA-MB-231 breast cancer cells by flow cytometry indicate that the CDK4/6 inhibitor compounds provided by the present disclosure stop the growth of G1 phase cells and reduce S phase cells in a concentration-dependent manner, as shown in the following table.

[2] = Pharmacokinetic (PK) experiment in rats; type: in vivo; conditions: male, SD, plasma, po, rat, intragastric 20 mg/kg; for AUC(0-t): 0-24 hour
Description: Male SD rats weighing 300-350 g were fasted overnight prior to the experiment. The compounds to be tested were dissolved in 30% sulfobutyl ether-β-cyclodextrin (SBE-β-CD) and the rats were intragastric administration at 20 mg/kg. The blood was taken from the tails of the rats at 15 min, 30 min, and 1, 2, 3, 4, 6, 8 and 24 hours after administration, with about 0.3 ml of blood at each time point, and then the blood was placed in a centrifuge tube containing K2-EDTA, and centrifuged (2,000 g, 10 min, 4° C.) to take the plasma which was then stored in an ultra-low temperature freezer at −80° C. 50 μL, of plasma sample was mixed with 5 μL of internal standard (IS) and extracted with ethyl acetate. The residue was redissolved in acetonitrile after vacuum drying. The sample was filtered and injected into LC-MS/MS for analysis to determine the concentration of the compounds to be tested.
In the table: Tmax refers to the peak time, Cmax refers to the maximum plasma drug concentration, T1/2 is the half-life, AUClast refers to the area under the 0-24 hour time-concentration curve, AUCinf refers to the area under the 0-Inf time-concentration curve.

MDA-MB-231 = assay: Tumor cell proliferation inhibition (CellTiter-Glo), MDA-MB-231; type: cell-based; conditions: Homo sapiens, 72 hours, 10% fetal bovine serum, read-out: MDA-MB-231 IC50 class
Description: (§1) The content of adenosine triphosphate (ATP) was determined using the CellTiter-Glo Luminescent Cell Viability Assay Kit (Promega, Madison, Wis.) to evaluate cell viability. Tumor cell lines (SW620, ZR-75-1, MDA-MB-231) were purchased from the Cell Resource Center of IBS, Fudan University, Shanghai and the American Type Culture Collection (ATCC). The cell density was determined using Scepter automated cell counter (Millipore # PHCC00000) after the cells were digested with pancreatin in cell culture dishes and resuspended in DPBS medium. The cells were diluted to a solution of 44,000 cells per ml. The cell solution of which density was adjusted was added into the cell assay plate at 90 microliters per well. The well plate was incubated in an incubator with 5% CO2 at 37° C. for 24 hours and then added with test compounds with different concentrations. The cells were incubated with the compounds in the presence of 10% fetal bovine serum for 72 hours. ATP content was assayed using the CellTiter-Glo® Luminescent Cell Viability Assay kit (see instructions of manufacturer) to assess cell growth inhibition. Briefly, 30 μl of CellTiter-Glo® reagent was added to each well, rocked for 10 minutes to induce cell lysis, and […] were detected and recorded with Fluoroskan Ascent FL (Thermo). The maximum signal value was obtained from the cells treated with dimethyl sulfoxide for 72 hours. The minimum signal value was obtained from the separate culture medium (cell number was zero). Inhibition rate %=(maximum signal value−compound signal value)/(maximum signal value−minimum signal value)×100. Data was processed using GraphPad Prism V5.0 (GraphPad Software, San Diego, Calif.) software. IC50 values were calculated by fitting S-shaped dose-response curves.

[3] = cited from earlier work
[4] = tested on: MDA-MB-435 breast cancer cells; assay: Pharmacodynamic experiment, MDA-MB-435 xenograft; type: in vivo, mouse
Description: MDA-MB-435 breast cancer cells were obtained from Shanghai Cell Bank of Chinese Academy of Sciences. Cryopreserved cells were thawed in a 37° C. water bath and then placed in RPMI 1640 medium supplemented with 10% fetal bovine serum (FBS), 1% insulin (Bioman Biotech, Shanghai) and incubated in 5% CO2 of Tissue Culture Incubator. […] The sign of successful transplantation was the formation of a round bulging lump under the skin. Tumor size can be measured approximately two weeks after implantation. The tumor size was measured by a caliper.

[5] = tested on: locally advanced or metastatic breast cancer, ER+ / HER2−; conditions: cited from earlier work
ZR-75-1 = assay: Tumor cell proliferation inhibition (CellTiter-Glo), ZR-75-1; type: cell-based; conditions: Homo sapiens, 72 hours, 10% fetal bovine serum, read-out: ZR-75-1 IC50 class
Description: as §1

SW620 = assay: Tumor cell proliferation inhibition (CellTiter-Glo), SW620; type: cell-based; conditions: Homo sapiens, SW-620; 72 hours, 10% fetal bovine serum; read-out: SW620 IC50 class
Description: as §1

[6] = target: T1, CDK6 (GST-CDK6(1-326end)) (Homo sapiens, UniProt Q00534); assay: CDK6 activity inhibition experiment (Caliper mobility shift assay); type: biochemical; conditions: enzyme activity inhibition; read-out: CDK6 IC50 class
T1 construct: GST-CDK6(1-326end); purchased Carna 04-107
T1 sequence (Q00534 whole entry): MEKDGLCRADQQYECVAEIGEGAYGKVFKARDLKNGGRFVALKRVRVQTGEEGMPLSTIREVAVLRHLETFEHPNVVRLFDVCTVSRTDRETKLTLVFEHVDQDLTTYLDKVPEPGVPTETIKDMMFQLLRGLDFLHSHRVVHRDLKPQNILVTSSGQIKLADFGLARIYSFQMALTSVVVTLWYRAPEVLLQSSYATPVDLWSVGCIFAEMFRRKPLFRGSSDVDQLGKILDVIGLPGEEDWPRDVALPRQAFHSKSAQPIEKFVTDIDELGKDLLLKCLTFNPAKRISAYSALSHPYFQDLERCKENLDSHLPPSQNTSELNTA
T1 sequence (P30281 whole entry partner): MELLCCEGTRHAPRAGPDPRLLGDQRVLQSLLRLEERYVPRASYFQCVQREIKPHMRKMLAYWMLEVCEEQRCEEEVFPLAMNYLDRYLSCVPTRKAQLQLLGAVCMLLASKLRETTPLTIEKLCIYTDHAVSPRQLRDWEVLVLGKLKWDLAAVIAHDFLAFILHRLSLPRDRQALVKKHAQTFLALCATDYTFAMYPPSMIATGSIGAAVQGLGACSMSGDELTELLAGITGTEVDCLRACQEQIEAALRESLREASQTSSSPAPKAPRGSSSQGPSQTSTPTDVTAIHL
Description: The activity of CDK6 protein kinase was measured using Caliper mobility shift assay (see J. Biomol Screen 14:31, 2009). […] 10 μl of the 2.5 times diluted CDK6 enzyme solution (GST-CDK6(1-326end); Carna, Cat. No 04-107) was added and then incubated at room temperature for 10 minutes, then 10 μl of the 2.5 times diluted substrate solution Peptide FAM-P8 (GL Biochem, Cat. No. 112396) was added. After being incubated at 28° C. for 40 minutes, 25 μl of stop solution was added to stop the reaction. Conversion rate data was read from Caliper EZ Reader II (Caliper Life Sciences). The conversion rate data was converted into inhibition rate data. […] Conversion rate data was converted into inhibition rate data according to the method described above. Inhibition rate %=(max−conversion rate)/(max−min)×100.

[7] = target: T2, CDK4 (GST-CDK4(1-303end)/GST-CycD3(1-292end)) (Homo sapiens, UniProt P11802); assay: CDK4 activity inhibition experiment (Caliper mobility shift assay); type: biochemical; conditions: enzyme activity inhibition; read-out: CDK4 IC50 class
T2 construct: GST-CDK4(1-303end); purchased Carna 04-105
T2 sequence (P11802 whole entry): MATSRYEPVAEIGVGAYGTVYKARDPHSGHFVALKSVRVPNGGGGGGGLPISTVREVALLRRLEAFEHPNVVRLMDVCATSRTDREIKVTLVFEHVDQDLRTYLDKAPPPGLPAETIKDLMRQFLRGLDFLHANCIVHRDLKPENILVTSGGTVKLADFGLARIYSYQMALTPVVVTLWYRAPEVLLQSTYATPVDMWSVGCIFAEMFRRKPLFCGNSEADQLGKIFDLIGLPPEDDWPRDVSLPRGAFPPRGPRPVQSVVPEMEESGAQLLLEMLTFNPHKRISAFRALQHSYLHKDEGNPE
T2 sequence (P30281 whole entry partner): as the sequence (P30281 whole entry partner) above

CDK2 = target: T3, CDK2 (Homo sapiens, UniProt P24941); assay: CDK2 activity inhibition experiment (Caliper mobility shift assay); type: biochemical; conditions: enzyme activity inhibition; read-out: CDK2 IC50 class
T3 construct: purchased Carna 04-103
Description: After being incubated at 28° C. for 60 minutes, 25 μl of stop solution was added to stop the reaction. Conversion rate data was read from Caliper EZ Reader II (Caliper Life Sciences). The conversion rate data was converted into inhibition rate data. […] The curve was plotted with compound concentration and inhibition rate as horizontal and vertical coordinates, and the IC50 was calculated by fitting the curve using XLFit excel add-in version 4.3.1 software. Inhibition rate %=(max-conversion rate)/(max-min)×100.

[8] = tested on: phosphorylation of Rb at Ser780 in MDA-MB-231 breast cancer cells; assay: Western Blot experiment, Rb phosphorylation; type: cell-based; conditions: MDA-MB-231 cells, 16 hours incubation, FIG. 1
Description: MDA-MB-231 cells were grown in monolayer culture. […] The protein concentration was determined by the Branfor method. After being added with a loading buffer (Beyotime, # P0015L), the supernatant was boiled at 100° C. for 8 min, and the protein was separated by 8%-10% SDS-PAGE electrophoresis and then transferred to the PVDF membrane, and the membrane was blocked with 5% skimmed milk powder for 45 min, and then the cells were incubated overnight at 4° C. with primary antibody β-actin (CST, #4970), Rb (D20) Rabbit mAb (CST, #9313), Phospho-Rb(Ser780)(D59B7) Rabbit mAb (CST, #8180), and then the membrane was washed with TBST solution for 3×10 min. The cells were incubated in the dark at room temperature for 2 h with the fluorescent secondary antibody IRDye@680CW Goat (polyclonal) Anti-Rabbit 1gG (H+L), Highly Cross Adsorbed (LI-COR, #926-68071), and then the membrane was washed under the same condition above. Finally, the membrane was detected and imaged on a LI-COR Odyssey Infrared Fluorescence Scanning System, and the results are shown in FIG. 1.
CDK4/6 can make Rb protein lose the arrest on cell cycle by phosphorylating the tumor suppressor protein Rb protein. CDK4/6 inhibitor can prevent the inactivation of tumor suppressor protein Rb and thereby restore the arrest of Rb on cell cycle.

| Structure (SMILES) | IC50 ([1]; read-out: IC50 (nM) G1 arrest) [nM] | IC50 ([1]; read-out: IC50 (nM) S decrease) [nM] | IC50 (MDA-MB-231) [nM] | IC50 (ZR-75-1) [nM] | IC50 (SW620) [nM] | IC50 [6] [nM] | IC50 [7] [nM] | IC50 (CDK2) [nM] | also measured |
| --- | --- | --- | --- | --- | --- | --- | --- | --- | --- |
| CC(=O)c1c(C)c2cnc(Nc3ccc(N4CCNCC4)cn3)nc2n(C2CCCC2)c1=O [PD-0332991, Palbociclib, reference compound] | 42.4 ± 16.1 | 45.1 ± 10.9 | 100 to 500 | 100 to 500 | 100 to 500 |  |  |  | Cmax [2]: 213 ng/mL; Tmax [2]: 1.2 h; half-life [2]: 600 min; AUC(0-t) [2]: 1250 ng·h/mL; AUC(0-inf) [2]: 1400 ng·h/mL; elimination half-life (Average) ([3]; Phase I clinical): 25.9 h; AUC ([3]; Phase I, single oral dose of 25-150 mg): 58 to 641 ng·h/mL; average body weight of the mice ([4]; after 6 days of oral 150 mg/kg once daily): significantly reduced; T/C value ([4]; after 14 days of oral administration, PD-0332991 150 then 100 mg/kg once daily, Compound 1 75 mg/kg twice daily): 41%; T/C value ([4]; day 6 after discontinuation (D20)): 35%; side effects ([5]; clinical, Pfizer Press Release): leukocyte reduction and fatigue |
| CC(=O)c1c(C)c2cnc(Nc3ccc(C4CCN(CCS(=O)(=O)c5ccc(Cl)cc5)CC4)cn3)nc2n(C2CCCC2)c1=O [Compound 4, 6-acetyl-2-((5-(1-(2-((4-chlorophenyl)sulfonyl)ethyl)piperidin-4-yl)pyridin-2-yl)amino)-8-cyclopentyl-5-methylpyrido[2,3-d]pyrimidin-7(8H)-one] |  |  |  |  |  | > 500 |  |  |  |
| CN(C)C(=O)c1cc2cnc(Nc3ccc(N4CCNCC4)cn3)nc2n1C1CCCC1 [LEE011, reference compound] |  |  | 1000 to 5000 | ≤ 100 | 500 to 1000 |  |  |  |  |
| CC(=O)c1c(C)c2cnc(Nc3ccc(C4CCCN(CCS(C)(=O)=O)C4)cn3)nc2n(C2CCCC2)c1=O (stereo not shown) [Compound 5, 6-acetyl-8-cyclopentyl-5-methyl-2-((5-(1-(2-(methylsulfonyl)ethyl)piperidin-3-yl)pyridin-2-yl)amino)pyrido[2,3-d]pyrimidin-7(8H)-one] |  |  | 500 to 1000 | 100 to 500 | 100 to 500 | 10 to 50 | 10 to 50 | > 500 |  |
| N#Cc1ccc(C(c2ccc(C#N)cc2)n2cncn2)cc1 [letrozole] |  |  |  |  |  |  |  |  | progression-free survival (PFS) ([5]; phase II, postmenopausal women, ER+ HER2− breast cancer, p=0.0004): 10.2 months |
| CC(=O)c1c(C)c2cnc(Nc3ccc(C4CCN(CCCS(C)(=O)=O)CC4)cn3)nc2n(C2CCCC2)c1=O [Compound 2, 6-acetyl-8-cyclopentyl-5-methyl-2-((5-(1-(3-(methylsulfonyl)propyl)piperidin-4-yl)pyridin-2-yl)amino)pyrido[2,3-d]pyrimidin-7(8H)-one] | 39.8 | 40.9 | 100 to 500 | ≤ 100 | 100 to 500 | 10 to 50 | < 10 | > 500 | Cmax [2]: 860 ng/mL; Tmax [2]: 2.7 h; half-life [2]: 300 min; AUC(0-t) [2]: 11200 ng·h/mL; AUC(0-inf) [2]: 11700 ng·h/mL; phosphorylation of Rb at Ser780 site [8]: effectively reduce |
| CC(=O)c1c(C)c2cnc(Nc3ccc(C4CCN(CCS(C)(=O)=O)CC4)cn3)cc2n(C2CCCC2)c1=O [Compound 13, 3-acetyl-1-cyclopentyl-4-methyl-7-((5-(1-(2-(methylsulfonyl)ethyl)piperidin-4-yl)pyridin-2-yl)amino)-1,6-naphthyridin-2(1H)-one] |  |  | 500 to 1000 | 500 to 1000 | 1000 to 5000 | 10 to 50 | < 10 | > 500 |  |
| CCN1CCN(Cc2ccc(Nc3ncc(F)c(-c4cc(F)c5nc(C)n(C(C)C)c5c4)n3)nc2)CC1 [LY2835219, reference compound] | 35.2 ± 8.9 | 42.9 ± 13.5 | 100 to 500 | ≤ 100 | 100 to 500 |  |  |  |  |
